Data as given in US6645983B1, “Pharmaceutical compositions comprising 4-quinolones for treating cancers” (Laboratoire L. Lafon, priority 1999, dated 2003).

System: SW1088
Assay: MTT test, cytotoxic activity on non-clonogenic cell lines
Format: cell-based
Details: Homo sapiens, 10^−5 M, 72 hours of incubation, control condition = 100%, mean value, read-out: mean optical density as percentage of control, SW1088
Protocol: (§1) The principle of the MTT test is based on the mitochondrial reduction, by the metabolically active live cells, of the yellow-colored product MTT (3-(4,5-dimethylthiazol-2-yl)-2,5-diphenyltetrazolium bromide) to a blue-colored product, formazan. The amount of formazan thus obtained is directly proportional to the amount of live cells present in the culture well(s). This amount of formazan is measured by spectrophotometry.
(§2) The cell lines are maintained as a monolayer culture at 37° C. in stoppered culture dishes containing MEM 25 MM HEPES (Minimum Essential Medium) base medium. This medium is suited to the growth of a range of various mammalian diploid or primary cells. This medium is then supplemented with:
(§3) The 12 human cancer cell lines which were used were obtained from the American Type Culture Collection (ATCC, Rockville, Md., USA). These 12 cell lines are:
SW1088 (code ATCC: HTB-12) which is an astro-cytoma,
(§4) Experimentally, 100 μl of a cell suspension containing 20 000 to 50 000 (depending on the cell type used) cells/ml of culture medium are inoculated -in 96-well flat-bottomed multi-well plates and are left to stand in an incubator at 37° C., 5% CO2 and 70% humidity. After an incubation time of 24 hours, the culture medium is replaced with 100 μl of fresh medium containing either the various test compounds—at concentrations varying from 10^−5 to 10^−10 M—or the solvent having served for dissolving the products to be tested (control condition). […] The microplates are thus incubated for 3 hours at 37° C., then centrifuged for 10 minutes at 400 g. The yellowish solution of MTT is removed and the blue formazan crystals formed in the cell region are dissolved in 100 μl or DMSO. The microplates are then shaken for 5 minutes. […] Software incorporated in the spectrophotometer calculates the average optical density values and the standard deviation (SD) and standard error of mean (SEM) values.
Compound CCOC(=O)Cn1cc(-c2ccc(OC)cc2)c(=O)c2c(OC)cc(OC)cc21 [CRL8360, Ethyl 2-[5,7-dimethoxy-3-(4-methoxyphenyl)-4-oxo-1,4-dihydro-1-quinolinyl]acetate] has a viability at 10 µM of 75.1%.
COc1ccc(-c2cn(C)c3c(OC)ccc(OC)c3c2=O)cc1 [CRL8371] gave a viability at 10 µM of 40.8%.
With COc1ccc(-c2cn(CC#N)c3cc(OC)cc(OC)c3c2=O)cc1 [CRL8372, [5,7-Dimethoxy-3-(4-methoxyphenyl)-4-oxo-1,4-dihydro-1-quinolinyl]acetonitrile] the viability at 10 µM was 98.1%.

System: A549
Assay: as above
Format: cell-based
Details: Homo sapiens, 10^−5 M, 72 hours of incubation, control condition = 100%, mean value, read-out: mean optical density as percentage of control, A549
Protocol: as §1, §2, §3, §4
With CCOC(=O)Cn1cc(-c2ccc(OC)cc2)c(=O)c2c(OC)cc(OC)cc21 [CRL8360, Ethyl 2-[5,7-dimethoxy-3-(4-methoxyphenyl)-4-oxo-1,4-dihydro-1-quinolinyl]acetate] the viability at 10 µM was 85.6%.
Work on COc1ccc(-c2cn(C)c3c(OC)ccc(OC)c3c2=O)cc1 [CRL8371] yielded a viability at 10 µM of 42.9%.
In the case of COc1ccc(-c2cn(CC#N)c3cc(OC)cc(OC)c3c2=O)cc1 [CRL8372, [5,7-Dimethoxy-3-(4-methoxyphenyl)-4-oxo-1,4-dihydro-1-quinolinyl]acetonitrile], the viability at 10 µM is reported as 93.4%.

System: HCT-15
Assay: as above
Format: cell-based
Details: Homo sapiens, 10^−5 M, 72 hours of incubation, control condition = 100%, mean value, read-out: mean optical density as percentage of control, HCT-16
Protocol: as §1, §2, §3, §4
For CCOC(=O)Cn1cc(-c2ccc(OC)cc2)c(=O)c2c(OC)cc(OC)cc21 [CRL8360, Ethyl 2-[5,7-dimethoxy-3-(4-methoxyphenyl)-4-oxo-1,4-dihydro-1-quinolinyl]acetate], the viability at 10 µM was 91.8%.
Compound COc1ccc(-c2cn(C)c3c(OC)ccc(OC)c3c2=O)cc1 [CRL8371] has a viability at 10 µM of 25.2%.
For COc1ccc(-c2cn(CC#N)c3cc(OC)cc(OC)c3c2=O)cc1 [CRL8372, [5,7-Dimethoxy-3-(4-methoxyphenyl)-4-oxo-1,4-dihydro-1-quinolinyl]acetonitrile], the viability at 10 µM was 84.3%.

System: U-373MG
Assay: as above
Format: cell-based
Details: Homo sapiens, U373 MG; 10^−5 M, 72 hours of incubation, control condition = 100%, mean value; read-out: mean optical density as percentage of control, U-373MG
Protocol: as §1, §2, §3, §4
With CCOC(=O)Cn1cc(-c2ccc(OC)cc2)c(=O)c2c(OC)cc(OC)cc21 [CRL8360, Ethyl 2-[5,7-dimethoxy-3-(4-methoxyphenyl)-4-oxo-1,4-dihydro-1-quinolinyl]acetate] the viability at 10 µM was 88%.
For COc1ccc(-c2cn(C)c3c(OC)ccc(OC)c3c2=O)cc1 [CRL8371], the viability at 10 µM was 42.8%.
With COc1ccc(-c2cn(CC#N)c3cc(OC)cc(OC)c3c2=O)cc1 [CRL8372, [5,7-Dimethoxy-3-(4-methoxyphenyl)-4-oxo-1,4-dihydro-1-quinolinyl]acetonitrile] the viability at 10 µM was 94.8%.

System: A-427
Assay: as above
Format: cell-based
Details: Homo sapiens, 10^−5 M, 72 hours of incubation, control condition = 100%, mean value, read-out: mean optical density as percentage of control, A-427
Protocol: as §1, §2, §3, §4
Work on CCOC(=O)Cn1cc(-c2ccc(OC)cc2)c(=O)c2c(OC)cc(OC)cc21 [CRL8360, Ethyl 2-[5,7-dimethoxy-3-(4-methoxyphenyl)-4-oxo-1,4-dihydro-1-quinolinyl]acetate] yielded a viability at 10 µM of 71.3%.
Compound COc1ccc(-c2cn(C)c3c(OC)ccc(OC)c3c2=O)cc1 [CRL8371] has a viability at 10 µM of 30.8%.
For COc1ccc(-c2cn(CC#N)c3cc(OC)cc(OC)c3c2=O)cc1 [CRL8372, [5,7-Dimethoxy-3-(4-methoxyphenyl)-4-oxo-1,4-dihydro-1-quinolinyl]acetonitrile], the viability at 10 µM was 93.9%.

System: T-47D
Assay: as above
Format: cell-based
Details: Homo sapiens, T47D; 10^−5 M, 72 hours of incubation, control condition = 100%, mean value; read-out: mean optical density as percentage of control, T-47D
Protocol: as §1, §2, §3, §4
CCOC(=O)Cn1cc(-c2ccc(OC)cc2)c(=O)c2c(OC)cc(OC)cc21 [CRL8360, Ethyl 2-[5,7-dimethoxy-3-(4-methoxyphenyl)-4-oxo-1,4-dihydro-1-quinolinyl]acetate] showed a viability at 10 µM of 82.1%.
With COc1ccc(-c2cn(C)c3c(OC)ccc(OC)c3c2=O)cc1 [CRL8371] the viability at 10 µM was 49.3%.
Work on COc1ccc(-c2cn(CC#N)c3cc(OC)cc(OC)c3c2=O)cc1 [CRL8372, [5,7-Dimethoxy-3-(4-methoxyphenyl)-4-oxo-1,4-dihydro-1-quinolinyl]acetonitrile] yielded a viability at 10 µM of 65.7%.

System: LoVo
Assay: as above
Format: cell-based
Details: Homo sapiens, 10^−5 M, 72 hours of incubation, control condition = 100%, mean value, read-out: mean optical density as percentage of control, LoVo
Protocol: as §1, §2, §3, §4
With CCOC(=O)Cn1cc(-c2ccc(OC)cc2)c(=O)c2c(OC)cc(OC)cc21 [CRL8360, Ethyl 2-[5,7-dimethoxy-3-(4-methoxyphenyl)-4-oxo-1,4-dihydro-1-quinolinyl]acetate] the viability at 10 µM was 98.6%.
COc1ccc(-c2cn(C)c3c(OC)ccc(OC)c3c2=O)cc1 [CRL8371] gave a viability at 10 µM of 45.6%.
For COc1ccc(-c2cn(CC#N)c3cc(OC)cc(OC)c3c2=O)cc1 [CRL8372, [5,7-Dimethoxy-3-(4-methoxyphenyl)-4-oxo-1,4-dihydro-1-quinolinyl]acetonitrile], the viability at 10 µM was 83.9%.

System: U-87MG
Assay: as above
Format: cell-based
Details: Homo sapiens, U-87 MG; 10^−5 M, 72 hours of incubation, control condition = 100%, mean value; read-out: mean optical density as percentage of control, U-87MG
Protocol: as §1, §2, §3, §4
With CCOC(=O)Cn1cc(-c2ccc(OC)cc2)c(=O)c2c(OC)cc(OC)cc21 [CRL8360, Ethyl 2-[5,7-dimethoxy-3-(4-methoxyphenyl)-4-oxo-1,4-dihydro-1-quinolinyl]acetate] the viability at 10 µM was 97.6%.
COc1ccc(-c2cn(C)c3c(OC)ccc(OC)c3c2=O)cc1 [CRL8371] showed a viability at 10 µM of 58.7%.
For COc1ccc(-c2cn(CC#N)c3cc(OC)cc(OC)c3c2=O)cc1 [CRL8372, [5,7-Dimethoxy-3-(4-methoxyphenyl)-4-oxo-1,4-dihydro-1-quinolinyl]acetonitrile], the viability at 10 µM was 92.9%.

System: MCF7
Assay: as above
Format: cell-based
Details: Homo sapiens, 10^−5 M, 72 hours of incubation, control condition = 100%, mean value, read-out: mean optical density as percentage of control, MCF7
Protocol: as §1, §2, §3, §4
Work on CCOC(=O)Cn1cc(-c2ccc(OC)cc2)c(=O)c2c(OC)cc(OC)cc21 [CRL8360, Ethyl 2-[5,7-dimethoxy-3-(4-methoxyphenyl)-4-oxo-1,4-dihydro-1-quinolinyl]acetate] yielded a viability at 10 µM of 95.3%.
Compound COc1ccc(-c2cn(C)c3c(OC)ccc(OC)c3c2=O)cc1 [CRL8371] has a viability at 10 µM of 45.6%.
In the case of COc1ccc(-c2cn(CC#N)c3cc(OC)cc(OC)c3c2=O)cc1 [CRL8372, [5,7-Dimethoxy-3-(4-methoxyphenyl)-4-oxo-1,4-dihydro-1-quinolinyl]acetonitrile], the viability at 10 µM is reported as 96.6%.

System: PC-3
Assay: as above
Format: cell-based
Details: Homo sapiens, 10^−5 M, 72 hours of incubation, control condition = 100%, mean value, read-out: mean optical density as percentage of control, PC-3
Protocol: as §1, §2, §3, §4
Compound CCOC(=O)Cn1cc(-c2ccc(OC)cc2)c(=O)c2c(OC)cc(OC)cc21 [CRL8360, Ethyl 2-[5,7-dimethoxy-3-(4-methoxyphenyl)-4-oxo-1,4-dihydro-1-quinolinyl]acetate] has a viability at 10 µM of 81.5%.
In the case of COc1ccc(-c2cn(C)c3c(OC)ccc(OC)c3c2=O)cc1 [CRL8371], the viability at 10 µM is reported as 54.2%.
COc1ccc(-c2cn(CC#N)c3cc(OC)cc(OC)c3c2=O)cc1 [CRL8372, [5,7-Dimethoxy-3-(4-methoxyphenyl)-4-oxo-1,4-dihydro-1-quinolinyl]acetonitrile] showed a viability at 10 µM of 110%.

System: not listed separately
Assay: Determination of the maximum tolerated dose (MTD)
Details: B6D2F1/Jico, mouse, in vivo, ip; single intraperitoneal administration, doses 2.5 to 160 mg/kg, survival over 14 days
Protocol: The evaluation of the maximum tolerated dose was performed on 4- to 6-week-old B6D2F1/Jico mice. The compounds were administered intraperitoneally at increasing doses ranging from 2.5 to 160 mg/kg. The value of the MTD (expressed in mg/kg) is determined from the observation of the survival rate of the animals over a 14-day period after a single administration of the product under consideration. The change in weight of the animals is also monitored during this period. When the MTD value is greater than 160 mg/kg, the MTD value is considered as being 160 mg/kg by default.
With CCOC(=O)Cn1cc(-c2ccc(OC)cc2)c(=O)c2c(OC)cc(OC)cc21 [CRL8360, Ethyl 2-[5,7-dimethoxy-3-(4-methoxyphenyl)-4-oxo-1,4-dihydro-1-quinolinyl]acetate] the MTD at 14 day was > 160 mg/kg.
With COc1ccc(-c2cn(C)c3c(OC)ccc(OC)c3c2=O)cc1 [CRL8371] the MTD at 14 day was 40 mg/kg.
With COc1ccc(-c2cn(CC#N)c3cc(OC)cc(OC)c3c2=O)cc1 [CRL8372, [5,7-Dimethoxy-3-(4-methoxyphenyl)-4-oxo-1,4-dihydro-1-quinolinyl]acetonitrile] the MTD at 14 day was > 160 mg/kg.

System: J82
Assay: MTT test, cytotoxic activity on non-clonogenic cell lines
Format: cell-based
Details: Homo sapiens, 10^−5 M, 72 hours of incubation, control condition = 100%, mean value, read-out: mean optical density as percentage of control, J82
Protocol: as §1, §2, §3
(§5) J82 (code ATCC: HTB-1) and T24 (code ATCC: HTB-4) which are two bladder cancers,
as §4
Work on CCOC(=O)Cn1cc(-c2ccc(OC)cc2)c(=O)c2c(OC)cc(OC)cc21 [CRL8360, Ethyl 2-[5,7-dimethoxy-3-(4-methoxyphenyl)-4-oxo-1,4-dihydro-1-quinolinyl]acetate] yielded a viability at 10 µM of 81.2%.
With COc1ccc(-c2cn(C)c3c(OC)ccc(OC)c3c2=O)cc1 [CRL8371] the viability at 10 µM was 76.3%.
COc1ccc(-c2cn(CC#N)c3cc(OC)cc(OC)c3c2=O)cc1 [CRL8372, [5,7-Dimethoxy-3-(4-methoxyphenyl)-4-oxo-1,4-dihydro-1-quinolinyl]acetonitrile] showed a viability at 10 µM of 93%.

System: T24
Assay: as above
Format: cell-based
Details: Homo sapiens, T-24; 10^−5 M, 72 hours of incubation, control condition = 100%, mean value; read-out: mean optical density as percentage of control, T24
Protocol: as §1, §2, §3, §5, §4
For CCOC(=O)Cn1cc(-c2ccc(OC)cc2)c(=O)c2c(OC)cc(OC)cc21 [CRL8360, Ethyl 2-[5,7-dimethoxy-3-(4-methoxyphenyl)-4-oxo-1,4-dihydro-1-quinolinyl]acetate], the viability at 10 µM was 87.5%.
COc1ccc(-c2cn(C)c3c(OC)ccc(OC)c3c2=O)cc1 [CRL8371] gave a viability at 10 µM of 52.2%.
For COc1ccc(-c2cn(CC#N)c3cc(OC)cc(OC)c3c2=O)cc1 [CRL8372, [5,7-Dimethoxy-3-(4-methoxyphenyl)-4-oxo-1,4-dihydro-1-quinolinyl]acetonitrile], the viability at 10 µM was 81.2%.
